According to patent US9901578B2, “Combination of 10-propargyl-10-deazaaminopterin and erlotinib for the treatment of non-small cell lung cancer” (Allos Therapeutics, Inc., priority 2007, dated 2018):
Values joined by “and” are separate entries in the source; they are usually repeats but may differ in a detail not shown here. Identical values can stand only once. “Also recorded” adds a separate entry of the source. Like-named read-outs stand apart in the source and are kept apart here. One block for each compound: values may come before it.

Key:
[1] = test system: H460 cells; test: Short-term uptake of radiolabeled drug in H460 cells; format: cell-based, human; conditions: for Total uptake of radiolabeled drug: measured at 15 and 60 minutes, PDX, MTX 5 μM, Alimta 20 μM
[2] = test system: FPGS activity (polyglutamylation); test: Polyglutamylation of radiolabeled drug in H460 cells; format: cell-based, human; conditions: lysates of treated H460 cells; PDX, MTX 5 μM, Alimta 20 μM
[3] = test system: A549 cells; test: In vitro growth inhibition in A549 cells; format: cell-based, human
Procedure: The human non small lung carcinoma cell line A549 was purchased from the American Type Culture Collection (ATCC, Manassas, Va.). The cell line was cultured in Ham's F 12K medium with 2 mM L-glutamine 1.5 g/L sodium bicarbonate, supplemented with 10% fetal bovine serum and was maintained at 37° C. in a humidified atmosphere at 5% CO2 and 95% air.
An in vitro study in A549 cells was performed to compare the growth inhibition activity of PDX to that of cisplatin, paclitaxel, and docetaxel.

[4] = test system: A549 xenograft; test: A549 xenograft mouse model, tumor volume; format: in vivo, athymic nu/nu mice; conditions: for Effect on tumor growth: 35 days
Procedure: Xenotransplant of A549 was established by subcutaneous inoculation of 5×10^6 cells on the right flank using a 21G needle in 6-8 week female athymic nude mice. A total of 75 animals were injected with A549 xenotransplant. Tumor volume was monitored twice weekly, once the established tumor reached 75-150 mm^3 (individual tumor range between 70 to 200 mm^3) the mice were randomized to the different groups as described in Table 2.
Tumor volume and body weights were measured twice weekly up to 58 days following A549 inoculation. Tumor volume was calculated using the following formula: Tumor volume=(A^2×B/2) where A is the smallest diameter and B is the largest diameter.
The treatment was initiated on the day of randomization according to the schedule described in Table 2. PDX was administered via IP injection and Tarceva® by oral gavage. PBS and 0.5% CMC were administrated to Group 1 as control vehicles by IP and PO routes, respectively.
Statistical analysis was performed using Graphpad Prism software. Comparison between control group and treatment groups was performed using 2 way ANOVA analysis.

[5] = test system: H460 xenografts; test: H460 non-small cell lung carcinoma human tumor xenograft; format: in vivo; conditions: PDX 1 mg/kg and 2 mg/kg
From the text: (§1) Endpoints included mean tumor growth inhibition or regression. We further evaluated activity and/or expression of folate-dependent enzymes: DHFR, thymidylate synthase (TS), and folylpolyglutamate synthase (FPGS) using kinetic assays and immunostaining in tumors harvested at the end of the study from animals treated with the antifolates or vehicle controls. In vitro studies included evaluation of reduced folate carrier (RFC) expression by quantitative RT-PCR in MV522, and H460, xenograft models. […] Inhibition of DHFR by the three antifolates was quantified in a cell-free assay against human recombinant DHFR.

[6] = target: T1, human recombinant DHFR (Homo sapiens, UniProt P00374); test: DHFR inhibition in a cell-free assay; format: biochemical; conditions: read-out: Apparent Ki for DHFR inhibition
T1 sequence (P00374 1-187): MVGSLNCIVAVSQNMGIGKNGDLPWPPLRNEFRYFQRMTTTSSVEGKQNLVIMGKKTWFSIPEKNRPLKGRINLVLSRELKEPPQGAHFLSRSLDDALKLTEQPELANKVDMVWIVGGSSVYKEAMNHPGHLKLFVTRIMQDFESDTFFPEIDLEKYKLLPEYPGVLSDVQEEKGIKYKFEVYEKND
From the text: as §1

[7] = test system: TS enzymatic activity and protein expression, and DHFR protein content; test: Activity/expression of folate-dependent enzymes in harvested tumors; format: in vivo; conditions: H460 and MV522 tumor xenografts
From the text: as §1

[8] = test system: MV522 xenografts; test: MV522 non-small cell lung carcinoma human tumor xenograft; format: in vivo; conditions: PDX 1 mg/kg and 2 mg/kg
From the text: as §1

[9] = Procedure: To evaluate the doses to be tested in the xenograft mouse model, non-tumor bearing female athymice nu/nu mice were treated with 2 mg/kg of PDX alone and in combination with 50 mg/kg of Tarceva® as described in Table 1. Animals were monitored daily for routine health observation. Body weight of the animals was recorded daily during the treatment phase and thereafter twice weekly for 14 days after the last treatment).

Compound: Nc1nc2[nH]cc(CCc3ccc(C(=O)N[C@@H](CCC(=O)O)C(=O)O)cc3)c2c(=O)[nH]1 [Alimta, pemetrexed]
Total uptake of radiolabeled drug [1]: decreased later
Polyglutamylation [2]: much lesser polyglutamylation

Compound: N.N.[Cl][Pt][Cl] [Cisplatin]
IC50 [3]: 0.0224 µM

IC50 ([3]; Homo sapiens): 0.0236 µM
Compound: CC(=O)O[C@@]12CO[C@@H]1C[C@H](O)[C@@]1(C)C(=O)[C@H](O)C3=C(C)[C@@H](OC(=O)[C@H](O)[C@@H](NC(=O)OC(C)(C)C)c4ccccc4)C[C@@](O)([C@@H](OC(=O)c4ccccc4)[C@H]21)C3(C)C [Docetaxel]

Compound: CN(Cc1cnc2nc(N)nc(N)c2n1)c1ccc(C(=O)N[C@@H](CCC(=O)O)C(=O)O)cc1 [MTX, methotrexate]
Fraction of radiolabeled drug that entered the cells ([1]; in comparison with PDX or Alimta): significantly smaller fraction
Polyglutamylation [2]: much lesser polyglutamylation

Compound: C#CCC(Cc1cnc2nc(N)nc(N)c2n1)c1ccc(C(=O)N[C@@H](CCC(=O)O)C(=O)O)cc1 (stereo partly shown) [PDX, 10-Propargyl-10-deazaaminopterin]
Total uptake of radiolabeled drug [1]: increased over time
Effect on tumor growth ([4]; PDX 1 mg/kg IP QDx5 two cycles): a trend in reducing tumor growth; also recorded: a trend toward controlling tumor growth
Tumor volume Avg ± SD ([4]; PDX 1 mg/kg IP QDx5 two cycles, day 0): 132 ± 52. mm^3
Tumor volume Avg ± SD ([4]; PDX 1 mg/kg IP QDx5 two cycles, day 3): 148 ± 67. mm^3
Tumor volume Avg ± SD ([4]; PDX 1 mg/kg IP QDx5 two cycles, day 7): 176 ± 87. mm^3
Tumor volume Avg ± SD ([4]; PDX 1 mg/kg IP QDx5 two cycles, day 10): 158 ± 93. mm^3
Tumor volume Avg ± SD ([4]; PDX 1 mg/kg IP QDx5 two cycles, day 14): 199 ± 79. mm^3
Tumor volume Avg ± SD ([4]; PDX 1 mg/kg IP QDx5 two cycles, day 17): 190 ± 78. mm^3
Tumor volume Avg ± SD ([4]; PDX 1 mg/kg IP QDx5 two cycles, day 21): 179 ± 112 mm^3
Tumor volume Avg ± SD ([4]; PDX 1 mg/kg IP QDx5 two cycles, day 24): 191 ± 105 mm^3
Tumor volume Avg ± SD ([4]; PDX 1 mg/kg IP QDx5 two cycles, day 28): 201 ± 114 mm^3
Tumor volume Avg ± SD ([4]; PDX 1 mg/kg IP QDx5 two cycles, day 35): 224±128 mm^3
Effect on tumor growth ([4]; PDX 2 mg/kg IP QDx5 two cycles): a trend in reducing tumor growth; also recorded: a trend toward controlling tumor growth; also recorded: inhibited the growth of the A549 xenografts
Tumor volume Avg ± SD ([4]; PDX 2 mg/kg IP QDx5 two cycles, day 0): 131 ± 49. mm^3
Tumor volume Avg ± SD ([4]; PDX 2 mg/kg IP QDx5 two cycles, day 3): 133 ± 60. mm^3
Tumor volume Avg ± SD ([4]; PDX 2 mg/kg IP QDx5 two cycles, day 7): 166 ± 75. mm^3
Tumor volume Avg ± SD ([4]; PDX 2 mg/kg IP QDx5 two cycles, day 10): 139 ± 70. mm^3
Tumor volume Avg ± SD ([4]; PDX 2 mg/kg IP QDx5 two cycles, day 14): 207 ± 100 mm^3
Tumor volume Avg ± SD ([4]; PDX 2 mg/kg IP QDx5 two cycles, day 17): 174 ± 104 mm^3
Tumor volume Avg ± SD ([4]; PDX 2 mg/kg IP QDx5 two cycles, day 21): 194 ± 114 mm^3
Tumor volume Avg ± SD ([4]; PDX 2 mg/kg IP QDx5 two cycles, day 24): 194 ± 101 mm^3
Tumor volume Avg ± SD ([4]; PDX 2 mg/kg IP QDx5 two cycles, day 28): 189 ± 106 mm^3
Tumor volume Avg ± SD ([4]; PDX 2 mg/kg IP QDx5 two cycles, day 35): 210±109 mm^3
Tumor growth [5]: dose-dependently inhibited tumor growth
Ki [6]: 0.045 µM
IC50 ([3]; Homo sapiens): 0.0651 µM
Polyglutamylation [2]: greater polyglutamylation
Effect on TS enzymatic activity and protein expression, and DHFR protein content [7]: down-regulated most of these endpoints
Tumor growth [8]: dose-dependently inhibited tumor growth
Tolerability ([9]; PDX 2 mg/kg IP QDx5 two cycles, Tarceva 50 mg/kg PO QDx21, alone or combined): well tolerated

IC50 ([3]; Homo sapiens): 0.109 µM
Compound: CC(=O)O[C@H]1C(=O)[C@@]2(C)[C@H]([C@H](OC(=O)c3ccccc3)[C@]3(O)C[C@H](OC(=O)[C@H](O)[C@@H](NC(=O)c4ccccc4)c4ccccc4)C(C)=C1C3(C)C)[C@]1(OC(C)=O)CO[C@@H]1C[C@@H]2O [Paclitaxel]

Compound: C#Cc1cccc(Nc2ncnc3cc(OCCOC)c(OCCOC)cc23)c1 [Tarceva, [6,7-bis(2-methoxyethoxy)-4-quinazolin-4-yl]-(3-ethynylphenyl)amine, reference compound]
Effect on tumor growth ([4]; Tarceva 50 mg/kg PO): did not control tumor growth
Tumor volume Avg ± SD ([4]; Tarceva 50 mg/kg PO, day 0): 131 ± 47. mm^3
Tumor volume Avg ± SD ([4]; Tarceva 50 mg/kg PO, day 3): 166 ± 80. mm^3
Tumor volume Avg ± SD ([4]; Tarceva 50 mg/kg PO, day 7): 216 ± 121 mm^3
Tumor volume Avg ± SD ([4]; Tarceva 50 mg/kg PO, day 10): 214 ± 140 mm^3
Tumor volume Avg ± SD ([4]; Tarceva 50 mg/kg PO, day 14): 249 ± 130 mm^3
Tumor volume Avg ± SD ([4]; Tarceva 50 mg/kg PO, day 17): 271 ± 206 mm^3
Tumor volume Avg ± SD ([4]; Tarceva 50 mg/kg PO, day 21): 270 ± 210 mm^3
Tumor volume Avg ± SD ([4]; Tarceva 50 mg/kg PO, day 24): 294 ± 261 mm^3
Tumor volume Avg ± SD ([4]; Tarceva 50 mg/kg PO, day 28): 308 ± 280 mm^3
Tumor volume Avg ± SD ([4]; Tarceva 50 mg/kg PO, day 35): 358±282 mm^3 and 357 ± 282 mm^3
Tolerability ([9]; mouse, in vivo): well tolerated
